According to PubChem BioAssay AID226 (DTP/NCI, 2004):
Where “and” joins values, the source holds several entries; their conditions need not be identical. Equal entries are not always repeated. Toxic doses and inconclusive results are not listed. Rule for the calls: active = survival T/C of 150% or more; inactive = T/C below 125% in these data.

Test system: B6C3F1 mice, intracerebral ependymoblastoma, median survival T/C
Test: NCI In Vivo Anticancer Drug Screen. Data for tumor model Ependymoblastoma (intracerebral) in B6C3F1 mice
Conditions: endpoint: median survival time, higher = longer survival
Experimental: The antitumor activity of compounds was measured in mice bearing transplantable tumors. Survival or tumor size were measured and the results are expressed as the measurement made in the treated group (T) divided by the measurement made in the vehicle treated control group (C). The tumor model used in this assay is Ependymoblastoma (intracerebral) in B6C3F1 mice

[1] = dose: 0.5 mg/kg/injection, schedule: Q01DX005 (ip), vehicle: saline
[2] = dose: 2.0 mg/kg/injection, schedule: Q01DX005 (ip), vehicle: saline
[3] = dose: 4.0 mg/kg/injection, schedule: Q01DX005 (ip), vehicle: saline

Measured: T/C

COc1cc([C@@H]2c3cc4c(cc3[C@@H](OC3OC5CO[C@@H](c6cccs6)OC5C(O)C3O)[C@H]3COC(=O)[C@H]23)OCO4)cc(OC)c1O (some centres undefined)
inactive: dose: 0.25 mg/kg/injection, schedule: Q01DX005 (ip), vehicle: saline 103 % of control | [1] 90 % of control | dose: 1.0 mg/kg/injection, schedule: Q12HX006 (ip), vehicle: saline 92 % of control | [2] 118 % of control | dose: 2.0 mg/kg/injection, schedule: Q01DX005 (oral), vehicle: saline 122 % of control | dose: 2.0 mg/kg/injection, schedule: Q12HX002 (ip), vehicle: saline 93 % of control | dose: 2.0 mg/kg/injection, schedule: Q12HX006 (ip), vehicle: saline 119 % of control | dose: 4.0 mg/kg/injection, schedule: Q01DX001 (ip), vehicle: saline 100 % of control and 105 % of control | dose: 4.0 mg/kg/injection, schedule: Q01DX005 (oral), vehicle: saline 124 % of control | dose: 4.0 mg/kg/injection, schedule: Q12HX002 (ip), vehicle: saline 93 % of control | dose: 4.0 mg/kg/injection, schedule: Q12HX006 (ip), vehicle: saline 119 % of control | dose: 8.0 mg/kg/injection, schedule: Q01DX001 (ip), vehicle: saline 110 % of control and 111 % of control and 118 % of control | dose: 8.0 mg/kg/injection, schedule: Q01DX005 (oral), vehicle: saline 113 % of control | dose: 8.0 mg/kg/injection, schedule: Q12HX002 (ip), vehicle: saline 90 % of control | dose: 8.0 mg/kg/injection, schedule: Q12HX006 (ip), vehicle: saline 122 % of control | dose: 16.0 mg/kg/injection, schedule: Q01DX001 (ip), vehicle: saline 112 % of control and 115 % of control and 118 % of control | dose: 16.0 mg/kg/injection, schedule: Q01DX001 (oral), vehicle: saline 94 % of control and 101 % of control | dose: 16.0 mg/kg/injection, schedule: Q12HX002 (ip), vehicle: saline 93 % of control | dose: 32.0 mg/kg/injection, schedule: Q01DX001 (ip), vehicle: saline 104 % of control and 109 % of control and 117 % of control | dose: 32.0 mg/kg/injection, schedule: Q01DX001 (oral), vehicle: saline 109 % of control and 110 % of control (2×) | dose: 64.0 mg/kg/injection, schedule: Q01DX001 (oral), vehicle: saline 104 % of control and 109 % of control and 115 % of control | dose: 128.0 mg/kg/injection, schedule: Q01DX001 (oral), vehicle: saline 97 % of control and 109 % of control

COC1OC(CO)C(O)C(NC(=O)N(C)N=O)C1O (centres undefined)
inactive: [1] 101 % of control | dose: 1.0 mg/kg/injection, schedule: Q01DX005 (ip), vehicle: saline + alcohol 100 % of control | dose: 1.0 mg/kg/injection, schedule: Q01DX005 (ip), vehicle: saline 103 % of control | dose: 1.0 mg/kg/injection, schedule: Q## X004 (ip), vehicle: saline + alcohol 113 % of control | dose: 1.0 mg/kg/injection, schedule: Q## X006 (ip), vehicle: saline + alcohol 116 % of control | dose: 2.0 mg/kg/injection, schedule: Q01DX005 (ip), vehicle: saline + alcohol 109 % of control | [2] 119 % of control | dose: 2.0 mg/kg/injection, schedule: Q## X004 (ip), vehicle: saline + alcohol 115 % of control | dose: 2.0 mg/kg/injection, schedule: Q#A X002 (ip), vehicle: saline + alcohol 107 % of control | dose: 4.0 mg/kg/injection, schedule: Q01DX001 (ip), vehicle: saline + alcohol 94 % of control and 100 % of control and 110 % of control | dose: 4.0 mg/kg/injection, schedule: Q01DX005 (ip), vehicle: saline + alcohol 107 % of control | [3] 108 % of control | dose: 4.0 mg/kg/injection, schedule: Q01DX005 (oral), vehicle: saline + alcohol 115 % of control | dose: 4.0 mg/kg/injection, schedule: Q## X004 (ip), vehicle: saline + alcohol 118 % of control | dose: 4.0 mg/kg/injection, schedule: Q## X006 (ip), vehicle: saline + alcohol 113 % of control | dose: 4.0 mg/kg/injection, schedule: Q#A X002 (ip), vehicle: saline + alcohol 97 % of control | dose: 8.0 mg/kg/injection, schedule: Q01DX001 (ip), vehicle: saline + alcohol 97 % of control and 106 % of control and 113 % of control | dose: 8.0 mg/kg/injection, schedule: Q01DX005 (ip), vehicle: saline 103 % of control | dose: 8.0 mg/kg/injection, schedule: Q01DX005 (oral), vehicle: saline + alcohol 113 % of control | dose: 8.0 mg/kg/injection, schedule: Q## X004 (ip), vehicle: saline + alcohol 119 % of control | dose: 8.0 mg/kg/injection, schedule: Q## X006 (ip), vehicle: saline + alcohol 118 % of control | dose: 8.0 mg/kg/injection, schedule: Q#A X002 (ip), vehicle: saline + alcohol 95 % of control | dose: 16.0 mg/kg/injection, schedule: Q01DX001 (ip), vehicle: saline + alcohol 91 % of control and 112 % of control and 117 % of control | dose: 16.0 mg/kg/injection, schedule: Q01DX001 (oral), vehicle: saline + alcohol 95 % of control and 108 % of control and 113 % of control | dose: 16.0 mg/kg/injection, schedule: Q01DX005 (ip), vehicle: saline + alcohol 121 % of control | dose: 16.0 mg/kg/injection, schedule: Q01DX005 (oral), vehicle: saline + alcohol 101 % of control | dose: 16.0 mg/kg/injection, schedule: Q#A X002 (ip), vehicle: saline + alcohol 109 % of control | dose: 32.0 mg/kg/injection, schedule: Q01DX001 (ip), vehicle: saline + alcohol 100 % of control and 103 % of control and 108 % of control | dose: 32.0 mg/kg/injection, schedule: Q01DX001 (oral), vehicle: saline + alcohol 91 % of control and 95 % of control and 117 % of control | dose: 32.0 mg/kg/injection, schedule: Q01DX005 (oral), vehicle: saline + alcohol 101 % of control | dose: 32.0 mg/kg/injection, schedule: Q#A X002 (ip), vehicle: saline + alcohol 100 % of control | dose: 64.0 mg/kg/injection, schedule: Q01DX001 (ip), vehicle: saline + alcohol 103 % of control (2×) and 119 % of control | dose: 64.0 mg/kg/injection, schedule: Q01DX001 (oral), vehicle: saline + alcohol 106 % of control and 107 % of control and 109 % of control | dose: 128.0 mg/kg/injection, schedule: Q01DX001 (oral), vehicle: saline + alcohol 107 % of control and 112 % of control and 123 % of control | dose: 256.0 mg/kg/injection, schedule: Q01DX001 (oral), vehicle: saline + alcohol 107 % of control and 119 % of control

CCOC(=O)CNC(=O)CCCCSc1ncnc2nc[nH]c12
inactive: [3] 106 % of control | dose: 16.0 mg/kg/injection, schedule: Q01DX001 (oral), vehicle: Klucel (hydroxypropylcellulose) (HPC) 95 % of control | dose: 16.0 mg/kg/injection, schedule: Q01DX005 (ip), vehicle: Klucel (hydroxypropylcellulose) (HPC) 100 % of control and 105 % of control | dose: 16.0 mg/kg/injection, schedule: Q01DX005 (ip), vehicle: saline 95 % of control and 101 % of control | dose: 32.0 mg/kg/injection, schedule: Q01DX005 (ip), vehicle: Klucel (hydroxypropylcellulose) (HPC) 96 % of control | dose: 64.0 mg/kg/injection, schedule: Q01DX001 (oral), vehicle: Klucel (hydroxypropylcellulose) (HPC) 92 % of control | dose: 64.0 mg/kg/injection, schedule: Q01DX005 (ip), vehicle: Klucel (hydroxypropylcellulose) (HPC) 95 % of control and 104 % of control and 109 % of control | dose: 64.0 mg/kg/injection, schedule: Q01DX005 (ip), vehicle: saline 96 % of control and 109 % of control | dose: 128.0 mg/kg/injection, schedule: Q01DX005 (ip), vehicle: Klucel (hydroxypropylcellulose) (HPC) 98 % of control | dose: 256.0 mg/kg/injection, schedule: Q01DX001 (oral), vehicle: Klucel (hydroxypropylcellulose) (HPC) 105 % of control | dose: 256.0 mg/kg/injection, schedule: Q01DX005 (ip), vehicle: Klucel (hydroxypropylcellulose) (HPC) 102 % of control and 108 % of control | dose: 256.0 mg/kg/injection, schedule: Q01DX005 (ip), vehicle: saline 105 % of control and 112 % of control | dose: 512.0 mg/kg/injection, schedule: Q01DX005 (ip), vehicle: Klucel (hydroxypropylcellulose) (HPC) 96 % of control | dose: 1024.0 mg/kg/injection, schedule: Q01DX005 (ip), vehicle: Klucel (hydroxypropylcellulose) (HPC) 100 % of control and 119 % of control and 121 % of control | dose: 1024.0 mg/kg/injection, schedule: Q01DX005 (ip), vehicle: saline 111 % of control and 124 % of control

O=NN(CCCl)C(=O)NC1CCCN(Cc2ccccc2)C1 (centres undefined)
active: dose: 50.0 mg/kg/injection, schedule: Q01DX001 (ip), vehicle: distilled water + Tween-80 178 % of control | dose: 100.0 mg/kg/injection, schedule: Q01DX001 (ip), vehicle: distilled water + Tween-80 223 % of control
